The source of these data is patent US20220071971A1, “MACROCYCLIC COMPOUNDS AND THEIR USE IN THE TREATMENT OF DISEASE” (NOVARTIS AG, priority 2018, published 2022).

As usually defined, the EC50 is the concentration needed to bring the measured effect to its halfway point.

In this experiment the target is T1, delF508-CFTR (Homo sapiens, UniProt P13569, DEL508-508).
T1 construct: expressed in transfected cells
As to the kind of experiment: Measurement of delF508-CFTR-HRP surface expression in CFBE41o- cells. It is filed as cell-based. The note with it: for Emax: CFBE41o-, read-out: DelF508-CFTR-HRP Amax %; for EC50: HRP-tagged delF508-CFTR surface expression, CFBE41o- cells, 24 h with compound, 10-point curve, highest concentration 10 μM. Summed up:
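CFBE41o- cells stably expressing delF508-CFTR with HRP in the fourth extracellular loop, induced 48 h with 500 ng/mL doxycycline, then exposed to compound (10-point, 3-fold, top 10 μM, ≤0.5% DMSO) for 24 h at 37° C. Surface HRP read by luminescence with cell-impermeant substrate; EC50 by logistic fit, triplicates, efficacy relative to reference corrector.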

The mark [1] stands for this setting: efficacy relative to reference compound 3-(6-(1-(2,2-difluorobenzo[d][1,3]dioxol-5-yl)cyclopropane-1-carboxamido)-3-methylpyridin-2-yl)benzoic acid.

T1 sequence (P13569 with tags, fused parts or gaps DEL508-508): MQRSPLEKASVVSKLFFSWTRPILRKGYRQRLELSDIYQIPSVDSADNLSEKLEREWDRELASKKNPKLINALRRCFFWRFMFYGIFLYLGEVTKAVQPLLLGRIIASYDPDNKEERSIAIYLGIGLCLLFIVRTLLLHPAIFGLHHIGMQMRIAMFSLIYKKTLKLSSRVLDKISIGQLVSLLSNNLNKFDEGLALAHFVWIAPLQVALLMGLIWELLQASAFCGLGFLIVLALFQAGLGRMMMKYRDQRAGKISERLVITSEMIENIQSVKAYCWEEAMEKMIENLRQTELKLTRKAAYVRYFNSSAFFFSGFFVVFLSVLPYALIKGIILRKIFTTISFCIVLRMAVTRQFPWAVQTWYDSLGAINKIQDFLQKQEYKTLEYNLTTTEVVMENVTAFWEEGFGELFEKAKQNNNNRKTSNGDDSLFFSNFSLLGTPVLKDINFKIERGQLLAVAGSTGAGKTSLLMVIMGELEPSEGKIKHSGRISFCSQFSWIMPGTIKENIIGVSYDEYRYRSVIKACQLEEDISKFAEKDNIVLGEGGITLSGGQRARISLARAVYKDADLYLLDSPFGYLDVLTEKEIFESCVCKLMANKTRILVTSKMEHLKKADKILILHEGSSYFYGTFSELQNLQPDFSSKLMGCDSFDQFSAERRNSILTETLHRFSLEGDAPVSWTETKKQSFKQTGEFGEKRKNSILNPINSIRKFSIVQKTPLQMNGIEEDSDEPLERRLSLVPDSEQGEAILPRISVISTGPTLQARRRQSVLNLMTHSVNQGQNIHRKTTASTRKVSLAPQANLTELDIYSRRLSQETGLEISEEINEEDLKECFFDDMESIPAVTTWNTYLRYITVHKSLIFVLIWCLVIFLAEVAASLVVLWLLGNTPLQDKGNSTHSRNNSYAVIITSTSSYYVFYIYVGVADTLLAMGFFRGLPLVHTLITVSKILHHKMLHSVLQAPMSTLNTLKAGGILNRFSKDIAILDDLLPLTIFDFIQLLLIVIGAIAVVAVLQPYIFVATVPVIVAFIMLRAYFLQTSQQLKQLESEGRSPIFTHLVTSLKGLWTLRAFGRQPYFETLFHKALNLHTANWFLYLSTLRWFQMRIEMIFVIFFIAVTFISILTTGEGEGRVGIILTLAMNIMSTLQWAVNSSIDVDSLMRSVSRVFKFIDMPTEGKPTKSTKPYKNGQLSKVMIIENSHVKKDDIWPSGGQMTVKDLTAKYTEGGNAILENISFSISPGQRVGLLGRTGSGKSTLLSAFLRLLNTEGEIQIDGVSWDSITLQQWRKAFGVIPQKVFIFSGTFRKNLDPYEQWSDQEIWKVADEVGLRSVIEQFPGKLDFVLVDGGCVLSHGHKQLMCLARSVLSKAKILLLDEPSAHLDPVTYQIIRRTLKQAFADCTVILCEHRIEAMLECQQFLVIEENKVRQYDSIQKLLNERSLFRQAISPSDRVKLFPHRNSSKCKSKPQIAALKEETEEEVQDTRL

`O=C(O)CCN1CCCCc2ccccc2-c2nc(ccc2C(F)(F)F)NS(=O)(=O)c2cccc1n2` [Compound 87, 3-(4,4-dioxido-2^3-(trifluoromethyl)-4-thia-3,6-diaza-2,5(2,6)-dipyridina-1(1,2)-benzenacyclodecaphane-6-yl)propanoic acid]: the EC50 was found to be 1420 nM. Besides, under setting [1], the Emax amounted to 306%.

Consider `O=S1(=O)Nc2ccc(Cl)c(n2)-c2ccccc2CCCCCCOc2cccc1n2` [Compound 111, 2^3-chloro-6-oxa-4-thia-3-aza-2,5(2,6)-dipyridina-1(1,2)-benzenacyclododecaphane 4,4-dioxide], for which the EC50 is 1060 nM. Still for that read-out and setting: under `O=S1(=O)Nc2ccc(C(F)(F)F)c(n2)-c2ccccc2CCCCCCCCN(CCCCO)c2cccc1n2` [Compound 44, 6-(4-hydroxybutyl)-2^3-(trifluoromethyl)-4-thia-3,6-diaza-2,5(2,6)-dipyridina-1(1,2)-benzenacyclotetradecaphane 4,4-dioxide] stands 159 nM.

As to `O=C(O)CC[C@H]1CCCCc2ccccc2-c2nc(ccc2C(F)(F)F)NS(=O)(=O)c2cccc(n2)N1` [Compound 135, (R)-3-(4,4-dioxido-2^3-(trifluoromethyl)-4-thia-3,6-diaza-2,5(2,6)-dipyridina-1(1,2)-benzenacycloundecaphane-7-yl)propanoic acid], the EC50 came to 154 nM. In addition, under setting [1], the Emax came out at 651%. Take `O=C(O)CCCN1CCCCCc2ccccc2-c2nc(ccc2C(F)(F)F)NS(=O)(=O)c2cccc1n2` [Compound 67, 4-(4,4-dioxido-2^3-(trifluoromethyl)-4-thia-3,6-diaza-2,5(2,6)-dipyridina-1(1,2)-benzenacycloundecaphane-6-yl)butanoic acid]: the half-maximal effective concentration (EC50) came out at 608 nM.

Turning to “8-hydroxy-2^3-(trifluoromethyl)-4-thia-3,6-diaza-2,5(2,6)-dipyridina-1(1,2)-benzenacycloundecaphane 4,4-dioxide [Compound 38]”, the EC50 came out at 1410 nM. Moreover, the “DelF508-CFTR-HRP Amax %” value under setting [1] is listed as 224.1%. As for `O=C(O)CCCN1CCCCCCCCc2ccccc2-c2nc(ccc2C(F)(F)F)NS(=O)(=O)c2cccc1n2` [Compound 71, 4-(4,4-dioxido-2^3-(trifluoromethyl)-4-thia-3,6-diaza-2,5(2,6)-dipyridina-1(1,2)-benzenacyclotetradecaphane-6-yl)butanoic acid], the EC50 came to 291 nM. On to `O=S1(=O)Nc2ccc(C(F)(F)F)c(n2)-c2ccccc2CCCCCN(CCN2C[C@H](O)[C@@H](O)C2)c2cccc1n2` [Compound 123, 6-(2-((3S,4S)-3,4-dihydroxypyrrolidin-1-yl)ethyl)-2^3-(trifluoromethyl)-4-thia-3,6-diaza-2,5(2,6)-dipyridina-1(1,2)-benzenacycloundecaphane 4,4-dioxide], for which the EC50 was found to be 1840 nM. Moreover, under setting [1], the Emax amounted to 308%. On to `O=C(O)CCCN1CCCCOc2ccc(F)cc2-c2nc(ccc2C(F)(F)F)NS(=O)(=O)c2cccc1n2` [Compound 63, 4-(1^5-fluoro-4,4-dioxido-2^3-(trifluoromethyl)-11-oxa-4-thia-3,6-diaza-2,5(2,6)-dipyridina-1(1,2)-benzenacycloundecaphane-6-yl)butanoic acid], for which the EC50 turned out to be 1800 nM. Turning to `COC(=O)CN1CCCCCCc2ccccc2-c2nc(ccc2C(F)(F)F)NS(=O)(=O)c2cccc1n2` [Compound 61, methyl 2-(4,4-dioxido-2^3-(trifluoromethyl)-4-thia-3,6-diaza-2,5(2,6)-dipyridina-1(1,2)-benzenacyclododecaphane-6-yl)acetate], the EC50 came out at 368 nM. In the case of `O=C(O)CN1CCCCCCc2ccccc2-c2nc(ccc2C(F)(F)F)NS(=O)(=O)c2cccc1n2` [Compound 120, 2-(4,4-dioxido-2^3-(trifluoromethyl)-4-thia-3,6-diaza-2,5(2,6)-dipyridina-1(1,2)-benzenacyclododecaphane-6-yl)acetic acid], the EC50 is 1410 nM. The Emax under setting [1] turned out to be 949%. The like results for `O=C1C2CCCCC2C(=O)N1CCCN1CCCCCc2ccccc2-c2nc(ccc2C(F)(F)F)NS(=O)(=O)c2cccc1n2` (stereo not drawn) [Compound 134, 2-(3-(4,4-dioxido-2^3-(trifluoromethyl)-4-thia-3,6-diaza-2,5(2,6)-dipyridina-1(1,2)-benzenacycloundecaphane-6-yl)propyl)hexahydro-1H-isoindole-1,3(2H)-dione] were, in that order, 608 nM and 410%. The like results for `CC(C)(CN1CCCCCc2ccc(F)cc2-c2nc(ccc2C(F)(F)F)NS(=O)(=O)c2cccc1n2)C(=O)O` [Compound 96, 3-(1^5-fluoro-4,4-dioxido-2^3-(trifluoromethyl)-4-thia-3,6-diaza-2,5(2,6)-dipyridina-1(1,2)-benzenacycloundecaphane-6-yl)-2,2-dimethylpropanoic acid] were, in that order, 431 nM and 792%. For `O=C(O)CCN1CCCCCCCCCc2ccccc2-c2nc(ccc2C(F)(F)F)NS(=O)(=O)c2cccc1n2` [Compound 75, 3-(4,4-dioxido-2^3-(trifluoromethyl)-4-thia-3,6-diaza-2,5(2,6)-dipyridina-1(1,2)-benzenacyclopentadecaphane-6-yl)propanoic acid], the EC50 worked out at 417 nM. As for `O=S1(=O)Nc2ccc(Cl)c(n2)-c2cccnc2NCCCCCNc2cccc1n2` [Compound 105, 2^3-chloro-4-thia-3,6,12-triaza-1(3,2),2,5(2,6)-tripyridinacyclododecaphane 4,4-dioxide], the EC50 was 2220 nM. Besides, the Emax under setting [1] was 178%. Turning to `O=C(O)CCN1CCCCCCc2ccccc2-c2nc(ccc2C(F)(F)F)NS(=O)(=O)c2cccc1n2` [Compound 84, 3-(4,4-dioxido-2^3-(trifluoromethyl)-4-thia-3,6-diaza-2,5(2,6)-dipyridina-1(1,2)-benzenacyclododecaphane-6-yl)propanoic acid], the EC50 was 1040 nM. For `O=C1c2ccccc2C(=O)N1CCCN1CCCCCc2ccccc2-c2nc(ccc2C(F)(F)F)NS(=O)(=O)c2cccc1n2` [Compound 133, 2-(3-(4,4-dioxido-2^3-(trifluoromethyl)-4-thia-3,6-diaza-2,5(2,6)-dipyridina-1(1,2)-benzenacycloundecaphane-6-yl)propyl)isoindoline-1,3-dione], the concentration giving a half-maximal response (EC50) is 457 nM. Under setting [1], the Emax amounted to 569%.

On to `O=C(O)CCN1CCCCCCCCc2ccccc2-c2nc(ccc2C(F)(F)F)NS(=O)(=O)c2cccc1n2` [Compound 69, 3-(4,4-dioxido-2^3-(trifluoromethyl)-4-thia-3,6-diaza-2,5(2,6)-dipyridina-1(1,2)-benzenacyclotetradecaphane-6-yl)propanoic acid], for which the EC50 is 351 nM. As for `O=S1(=O)Nc2ccc(C(F)(F)F)c(n2)-c2ccccc2CCCCCN(CCCO)c2cccc1n2` [Compound 29, 6-(3-hydroxypropyl)-2^3-(trifluoromethyl)-4-thia-3,6-diaza-2,5(2,6)-dipyridina-1(1,2)-benzenacycloundecaphane 4,4-dioxide], the 50% effective concentration (EC50) amounted to 146 nM. For the same molecule, the Emax under setting [1] stood at 517%. As to `O=C(O)CCCN1CCCCCCc2ccc(F)cc2-c2nc(ccc2C(F)(F)F)NS(=O)(=O)c2cccc1n2` [Compound 68, 4-(1^5-fluoro-4,4-dioxido-2^3-(trifluoromethyl)-4-thia-3,6-diaza-2,5(2,6)-dipyridina-1(1,2)-benzenacyclododecaphane-6-yl)butanoic acid], the EC50 amounted to 418 nM.

With `CN1CCCCCCc2ccccc2-c2nc(ccc2C(F)(F)F)NS(=O)(=O)c2cccc1n2` [Compound 35, 6-methyl-2^3-(trifluoromethyl)-4-thia-3,6-diaza-2,5(2,6)-dipyridina-1(1,2)-benzenacyclododecaphane 4,4-dioxide], the EC50 is 331 nM. Moreover, the Emax under setting [1] came out at 715%. Take `O=C(O)CCCN1CCCCCCc2ccccc2-c2nc(ccc2C(F)(F)F)NS(=O)(=O)c2cccc1n2` [Compound 76, 4-(4,4-dioxido-2^3-(trifluoromethyl)-4-thia-3,6-diaza-2,5(2,6)-dipyridina-1(1,2)-benzenacyclododecaphane-6-yl)butanoic acid]: the EC50 is 421 nM. `CN1CCN(CCN2CCCCCc3ccccc3-c3nc(ccc3C(F)(F)F)NS(=O)(=O)c3cccc2n3)CC1` [Compound 125, 6-(2-(4-methylpiperazin-1-yl)ethyl)-2^3-(trifluoromethyl)-4-thia-3,6-diaza-2,5(2,6)-dipyridina-1(1,2)-benzenacycloundecaphane 4,4-dioxide]: the EC50 stood at 931 nM. The Emax under setting [1] turned out to be 162%. Consider `O=C(O)CCN1CCCCCc2ccc(F)cc2-c2nc(ccc2C(F)(F)F)NS(=O)(=O)c2cccc1n2` [Compound 97, 3-(1^5-fluoro-4,4-dioxido-2^3-(trifluoromethyl)-4-thia-3,6-diaza-2,5(2,6)-dipyridina-1(1,2)-benzenacycloundecaphane-6-yl)propanoic acid], for which the EC50 worked out at 747 nM. For the same molecule, the Emax under setting [1] came to 728%.

`O=C(O)CNCCN1CCCCCc2ccccc2-c2nc(ccc2C(F)(F)F)NS(=O)(=O)c2cccc1n2` [Compound 127, (2-(4,4-dioxido-2^3-(trifluoromethyl)-4-thia-3,6-diaza-2,5(2,6)-dipyridina-1(1,2)-benzenacycloundecaphane-6-yl)ethyl)glycine]: the EC50 worked out at 3630 nM. Moreover, the Emax under setting [1] worked out at 93.6%.
